In ChEMBL document CHEMBL1147235, “Isolation and structure determination of lyngbyastatin 3, a lyngbyastatin 1 homologue from the marine cyanobacterium Lyngbya majuscula. Determination of the configuration of the 4-amino-2,2-dimethyl-3-oxopentanoic acid unit in majusculamide C, dolastatin 12, lyngbyastatin 1, and lyngbyastatin 3 …” (J Nat Prod, 2003):
Calls of active or inactive are those of the source. The calls are words filed in the database; no cut-off is given here. *1 amine or outer side, *2 acyl side, *3 side chain or, on linkers, in order; H or OH if unused. Where a SMILES comes first, the peptide text is derived from it. [ ]: non-standard residue; d: D form. X2 = CCC[C@@H](N[*:1])[C@H](C)C(=O)O[C@H](C(=O)[*:2])[C@H](C)CC; X1 = C[C@H](N[*:1])C(=O)C(C)(C)C(=O)[*:2]; NMeY = CN[C@@H](Cc1ccc(O)cc1)C(=O)O; NMeL = CN[C@@H](CC(C)C)C(=O)O; NMeV = CN[C@H](C(=O)O)C(C)C; NMeA = CN[C@@H](C)C(=O)O

Experiments:
MC-38 = assay: Antitumor activity against mouse colon 38 cells implanted mouse; format: functional, cell-based
KB = assay: Cytotoxicity against human KB cells; format: functional, cell-based
Mus musculus = assay: Antitumor activity against mouse mammary adenocarcinoma 16/C cells implanted mouse; format: functional
LoVo = assay: Cytotoxicity against human LoVo cells; format: functional, cell-based

With CCC[C@H]1NC(=O)[C@H](C)N(C)C(=O)C(C)(C)C(=O)[C@H](C)NC(=O)[C@H](Cc2ccc(OC)cc2)N(C)C(=O)[C@H](C(C)C)N(C)C(=O)CNC(=O)[C@H](CC(C)C)N(C)C(=O)CNC(=O)[C@H]([C@H](C)CC)OC(=O)[C@H]1C [lyngbyastatin 3] (cyclo(G[NMeL]G[NMeV][NMeY](Me)[X1][NMeA][X2])) the Activity (MC-38) was “inactive”, the IC50 (KB) was 32 nM and the Activity (Mus musculus) was “inactive”. It also gave an IC50 (LoVo) of 400 nM.
